Results as given in patent publication US10633399B2, “Functionalized aminobenzoboroxoles” (Channel Therapeutics, Inc., priority 2015, dated 2020).

Assays:
[1] = Cell viability assay (MTT), MDA-MB-231; details: human, MDA-MB-231 breast cancer cells
Experimental: (§1) After synthesizing the functionalized aminobenzoboroxoles, these molecules were evaluated for their general cytotoxicity against breast cancer cell lines (MDA-MB-231) and pancreatic cancer cell lines (MIAPaCa-2).
(§2) Human pancreatic cancer MIAPaCa-2 cells were purchased from ATCC and were maintained in D-MEM supplemented with 10% FBS, 2.5% horse serum, and 1% Penicillin Streptomycin in a humidified atmosphere of 5% CO2 at 37° C. Human breast cancer MDA-MB-231 cells were purchased from ATCC and were maintained in D-MEM supplemented with 10% FBS and 1% Penicillin Streptomycin in a humidified atmosphere of 5% CO2 at 37° C. […] DMSO was added as a negative control. To determine the cell viability, MTT (3-(4,5-dimethylthiazolyl-2)-2,5-diphenyltetrazolium bromide) was dissolved in PBS solution (5 mg/mL) and 10 μL was added to each well and incubated. After 4 hours, 100 μL of SDS (sodium dodecyl sulfate) solution (1 g in 10 mL of 0.01 N HCl) was added to solubilize formazan precipitate and incubated for an additional 4 hours. The absorbance of each well was then measured using a microplate reader at 570 nm. The absorbance of control wells was defined as 100% viability and all of the tested compounds were expressed as percentage relative to the control.

[2] = Cell viability assay (MTT), MIAPaCa-2; details: human, MIAPaCa-2 pancreatic cancer cells
Experimental: as §1, §2

[3] = tested on: Human breast cancer MDA-MB-231 cells; assay: Cell viability assay (MTT), MDA-MB-231; details: Homo sapiens, MDA-MB-231
Experimental: as §1, §2

[4] = tested on: Human pancreatic cancer MIAPaCa-2 cells; assay: Cell viability assay (MTT), MIAPaCa-2; details: for activity against MIAPaCa-2 cell lines: 12.5 μM concentration; for IC50: Homo sapiens, MIA PaCa-2
Experimental: as §1, §2

| SMILES | melting point [°C] | IC50 [3] [µM] | IC50 [4] [µM] | viability at 72 h, 12.5 µM [1] [%] | viability at 72 h, 50 µM [1] [%] | viability at 72 h, 12.5 µM [2] [%] | viability at 72 h, 50 µM [2] [%] | activity against MIAPaCa-2 cell lines [4] |
| --- | --- | --- | --- | --- | --- | --- | --- | --- |
| CCCCN(CCCC)c1ccc(CNc2ccc3c(c2)B(O)OC3)cc1 [Compound 12] | 94 to 96 |  |  | 106 | 103 | 89.1 | 58.2 |  |
| N#Cc1ccc(CNc2ccc3c(c2)B(O)OC3)cc1 [Compound 8] | 141 to 143 |  |  | 77.7 | 109 | 80.8 | 47 |  |
| Cc1ccc(CNc2ccc3c(c2)B(O)OC3)cc1 [Compound 9] | 148 to 150 |  |  | 84.1 | 82.8 | 57.2 | 45.9 |  |
| CN(C)c1ccc(CNc2ccc3c(c2)B(O)OC3)cc1 [Compound 11] | 122 to 124 |  |  | 97.6 | 71.1 | 72.1 | 78.4 |  |
| O=C(O)c1ccc(CNc2ccc3c(c2)B(O)OC3)cc1 [Compound 7] | 221 to 223 |  |  | 100 | 124 | 71.3 | 80.6 |  |
| O=C(Nc1ccc([N+](=O)[O-])c(C(F)(F)F)c1)c1ccc(CNc2ccc3c(c2)B(O)OC3)cc1 [Compound 15] | 117 to 119 |  |  |  |  |  |  |  |
| O=NN(Cc1ccc(F)cc1)c1ccc2c(c1)B(O)OC2 [Compound 19] | 121 to 123 |  |  | 128 | 108 | 77.7 | 62.8 |  |
| OB1OCc2ccc(NCc3ccc(Cl)c(Cl)c3)cc21 [Compound 6] | 128 to 130 |  |  | 69.2 | 68.7 | 95.3 | 62.6 |  |
| OB1OCc2ccc(NCc3ccccc3)cc21 [Compound 2] | 123 to 125 |  |  | 73.7 | 80.2 | 76.6 | 34.5 |  |
| OB1OCc2ccc(NCc3ccc(F)cc3F)cc21 [Compound 4] | 136 to 138 |  |  | 80.2 | 90 | 90.9 | 63.9 |  |
| COc1ccc(CNc2ccc3c(c2)B(O)OC3)cc1 [Compound 10, 6-N-(p-methoxybenzyl)aminobenzoboroxole] | 122 to 124 |  |  | 90.2 | 90 | 51.8 | 37.9 |  |
| OB1OCc2ccc(NCc3ccc(F)cc3)cc21 [Compound 3] | 135 to 137 |  |  | 84 | 91.7 | 87.2 | 73.6 |  |
| OB1OCc2ccc(NCc3ccc(Cl)cc3Cl)cc21 [Compound 5] | 106 to 108 |  |  | 75.2 | 75.7 | 86.4 | 65.8 |  |
| O=NN(Cc1ccccc1)c1ccc2c(c1)B(O)OC2 [Compound 17] | 108 to 110 |  |  | 121 | 115 | 83.5 | 51.5 |  |
| O=C(NCCCl)N(Cc1ccccc1)c1ccc2c(c1)B(O)OC2 [Compound 27] | 138 to 140 |  |  | 135 | 101 | 104 | 61.8 |  |
| COc1ccc(CN(C(=O)NCCCl)c2ccc3c(c2)B(O)OC3)cc1 [Compound 28] | 134 to 136 |  |  | 95.8 | 63.2 | 74.9 | 60.4 |  |

Second part, led by results:

| melting point [°C] | IC50 [3] [µM] | IC50 [4] [µM] | SMILES | viability at 72 h, 12.5 µM [1] [%] | viability at 72 h, 50 µM [1] [%] | viability at 72 h, 12.5 µM [2] [%] | viability at 72 h, 50 µM [2] [%] | activity against MIAPaCa-2 cell lines [4] |
| --- | --- | --- | --- | --- | --- | --- | --- | --- |
| 156 to 158 |  |  | COc1ccc(CN(C(=O)NC2CCCCC2)c2ccc3c(c2)B(O)OC3)cc1 [Compound 26] | 96.3 | 60.8 | 45.5 | 25.1 |  |
| 209 to 211 | 11.5 | 8.3 | OB1OCc2ccc(NCc3cc4ccccc4nc3Cl)cc21 [Compound 16] | 44.3 | 44.8 | 28.2 | 28.6 | showed activity |
| 116 to 118 |  |  | O=C(Nc1ccccc1)N(Cc1ccccc1)c1ccc2c(c1)B(O)OC2 [Compound 23] | 116 | 47 | 49.6 | 30 |  |
| 121 to 123 |  |  | O=NN(Cc1ccc(Cl)cc1Cl)c1ccc2c(c1)B(O)OC2 [Compound 21] | 134 | 106 | 95.7 | 69.5 |  |
| 125 to 127 |  |  | O=C(NC1CCCCC1)N(Cc1ccccc1)c1ccc2c(c1)B(O)OC2 [Compound 25] | 80.9 | 128 | 64.8 | 39.4 |  |
| 136 to 138 |  |  | OB1OCc2ccc(NCc3ccc4c(c3)OCO4)cc21 [Compound 14] | 88.5 | 102 | 88.9 | 69 |  |
| 65 to 67 |  |  | OB1OCc2ccc(NCc3ccc(N4CCCCC4)cc3)cc21 [Compound 13] | 93.9 | 90.7 | 92 | 49.5 |  |
| 125 to 127 |  |  | O=NN(Cc1ccc(F)cc1F)c1ccc2c(c1)B(O)OC2 [Compound 20] | 122 | 126 | 70.3 | 70.5 |  |
| 109 to 111 |  |  | COc1ccc(CN(N=O)c2ccc3c(c2)B(O)OC3)cc1 [Compound 18, 6-N-nitroso-N-(p-methoxybenzyl)amino-benzoboroxole] | 119 | 123 | 83 | 61 |  |
| 104 to 106 | 11.9 | 2.7 | COc1ccc(CN(C(=O)Nc2ccccc2)c2ccc3c(c2)B(O)OC3)cc1 [Compound 24] | 63 | 53.9 | 22.4 | 17.5 | showed activity |
| 144 to 147 |  |  | O=NN(Cc1ccc(Cl)c(Cl)c1)c1ccc2c(c1)B(O)OC2 [Compound 22] | 122 | 146 | 84.8 | 59.9 |  |
